Calls of active or inactive are those of the source. No cut-off for these calls is given here.
How the values were obtained:
[1] = Antioxidant activity assessed as DPPH scavenging activity after 30 mins by microplate reader method; assay type: functional
[2] = Antioxidant activity assessed as singlet 1O2 oxygen quenching activity after 2 mins by EPR spectrometry; assay type: functional
[3] = Antioxidant activity assessed as inhibition of TEMP-singlet 1O2 oxygen adduct formation measuring after 2 mins by EPR spectrometry; assay type: functional
[4] = Antioxidant activity assessed as inhibition of singlet 1O2 oxygen formation at 1.3 uM after 2 mins by EPR spectrometry; assay type: functional
[5] = Antioxidant activity assessed as complete inhibition of singlet 1O2 oxygen formation at 37 uM after 2 mins by EPR spectrometry
[6] = Ratio of resveratrol IC50 to compound IC50 for singlet 1O2 oxygen quenching activity

Row | IC50 [1] | IC50 [2] | Compound | further results
1 | > 1000 µM |  | C(=N\c1ccccc1)/c1ccccc1 | 
2 | > 1000 µM |  | COc1cccc(/C=N/c2ccccc2C)c1 | 
3 | 27.4 µM | 2.92 µM | Oc1ccccc1/C=N/c1ccccc1O | 
4 | 24.9 µM | 1.42 µM | COc1cccc(/C=N/c2ccccc2O)c1 | 
5 | > 1000 µM |  | Oc1cccc(/C=N/c2ccccc2)c1 | 
6 | 23.9 µM | 3.47 µM | Oc1ccccc1/N=C/c1ccccc1 | 
7 | 468 µM |  | Oc1cccc(/N=C/c2ccccc2O)c1 | 
8 | > 1000 µM |  | Oc1ccccc1/C=N/c1ccccc1 [2-((PHENYLIMINO)METHYL)PHENOL] | 
9 | 142 µM |  | Oc1ccc(/N=C/c2ccccc2)cc1 [4-(BENZYLIDENEAMINO)PHENOL] | 
10 | > 1000 µM |  | Cc1ccc(/N=C/c2cccc(O)c2)cc1 | 
11 | 23.1 µM | 2.18 µM | Oc1cccc(/C=N/c2ccccc2O)c1 | 

The next lines start with the compound.

Row | Compound | IC50 [1] | IC50 [2] | further results
12 | Oc1ccc(/N=C/c2cc(O)cc(O)c2)cc1 | 164 µM |  | 
13 | COc1cccc(/C=N/c2ccc(C)cc2)c1 | > 1000 µM |  | 
14 | COc1ccc(/C=N/c2ccccc2O)cc1 | 28.1 µM | 1.3 µM | 
15 | Oc1ccc(/N=C/c2ccccc2O)cc1 | 561 µM |  | 
16 | Cc1cccc(/N=C/c2ccc(O)cc2)c1 | > 1000 µM |  | 
17 | COc1ccc(/N=C/c2ccc(O)cc2)cc1 | > 1000 µM |  | 
18 | COc1ccc(/C=N/c2ccc(OC)cc2)cc1 | > 1000 µM |  | 
19 | Oc1ccc(/C=C/c2cc(O)cc(O)c2)cc1 [RESVERATROL] | 71.2 µM | 16.9 µM | 
20 | Oc1ccc(/C=N/c2cccc(O)c2)cc1 | 362 µM |  | 
21 | Oc1ccc(/C=N/c2ccccc2O)cc1 | 24.3 µM | 0.99 µM | inhibition [3]: Dose-dependent effect; inhibition [4]: Active; inhibition [5]: Active; Ratio IC50 [6]: > 15
22 | Oc1ccc(/C=N/c2ccccc2O)cc1O | 12.1 µM | 2.26 µM | 
23 | O=C1O[C@H]([C@@H](O)CO)C(O)=C1O [ASCORBIC ACID] | 19.3 µM |  | 
24 | COc1cc(/C=N/c2ccc(O)cc2)cc(OC)c1 | 413 µM |  | 
25 | Cc1ccc(/N=C/c2ccc(O)cc2)cc1 | > 1000 µM |  | 
26 | COc1cc(/C=C/C(=O)CC(=O)/C=C/c2ccc(O)c(OC)c2)ccc1O [CURCUMIN] |  | 2.75 µM | 

— ChEMBL document CHEMBL2062421, “The antioxidant effect of imine resveratrol analogues” (Bioorg Med Chem Lett, 2012)
